Biological target: T1, Active human recombinant ROCK II (N-terminal His6-tagged recombinant human ROCK-II residues 11-552) (Homo sapiens, UniProt O75116)
T1 construct: recombinant human ROCK-II residues 11-552; His6 (N); purchased Upstate Ltd., Dundee, UK
Assay: Determination of Rho Kinase Inhibition (Caliper peptide phosphorylation assay)
Type: biochemical
Conditions: Fluorescein-AKRRRLSSLRA-COOH substrate and ATP, 60 min incubation at 32° C., respective form (salt or free base) obtained as in the examples
Description: Determination of Rho Kinase Inhibition
To measure Rho-kinase inhibition, IC50 values were determined according to the following protocol:
Active human recombinant ROCK II (N-terminal His6-tagged recombinant human ROCK-II residues 11-552) was purchased from Upstate Ltd., Dundee, UK. The peptide substrate, Fluorescein-AKRRRLSSLRA-COOH, was obtained from JPT Peptide Technologies, Berlin, Germany. Adenosine-5′-triphosphate (ATP), bovine serum albumine (BSA), dimethylsulphoxide (DMSO), 4-(2-hydroxyethyl)piperazine-1-ethanesulfonic acid (Hepes), Brij-35 and dithiothreitol (DTT) were purchased from Sigma-Aldrich, Munich, Germany. Tris(hydroxymethyl)-aminomethane (Tris), magnesium chloride, NaOH, 1 M HCl and EDTA were obtained from Merck Biosciences, Darmstadt, Germany. “Complete” protease inhibitor was from Roche Diagnostics, Mannheim, Germany.
Test compounds were diluted to the appropriate concentrations in buffer 1 (25 mM Tris-HCl, pH 7.4, 5 mM MgCl2, 2 mM DTT, 0.02% (w/v) BSA and 3% DMSO). The ROCK II enzyme was diluted to a concentration of 100 ng/ml in buffer 2 (25 mM Tris-HCl, pH 7.4, 5 mM MgCl2, 2 mM DTT and 0.02% (w/v) BSA). The peptide substrate and ATP were diluted to concentrations of 3 μM and 120 μM, respectively, in the buffer 2. 2 μl of the compound solution were mixed with 2 μl of the diluted enzyme in a 384-well small volume microtiter plate (Greiner, Bio-One, Frickenhausen, Germany), and the kinase reaction was initiated by addition of 2 μl of the solution containing peptide substrate and ATP. After 60 min incubation at 32° C., the reaction was stopped by addition of 20 μl of a solution containing 100 mM Hepes-NaOH, pH 7.4, 0.015% (v/v) Brij-35, 45 mM EDTA and 0.227% chip coating reagent 1 (Caliper Lifescience Inc, Hopkinton, Mass.). Phosphorylation of the substrate peptide was then detected on a Caliper 3000 instrument essentially as described by Pommereau et al. (J. Biomol. Screening 2004, 9(5), 409-416). Separation conditions were as follows: Pressure—1.3 psi, upstream voltage—1562 V, downstream voltage—500 V, sample sip time 200 ms. Positive controls (buffer 1 instead of compound) and negative controls (buffer 1 instead of compound and buffer 2 instead of ROCK II) were run in parallel on each plate.
The following products/compounds were tested in said assay by using the respective form (salt or free base) obtained as in the examples described above and the following activities were measured.

T1 sequence (O75116 11-552): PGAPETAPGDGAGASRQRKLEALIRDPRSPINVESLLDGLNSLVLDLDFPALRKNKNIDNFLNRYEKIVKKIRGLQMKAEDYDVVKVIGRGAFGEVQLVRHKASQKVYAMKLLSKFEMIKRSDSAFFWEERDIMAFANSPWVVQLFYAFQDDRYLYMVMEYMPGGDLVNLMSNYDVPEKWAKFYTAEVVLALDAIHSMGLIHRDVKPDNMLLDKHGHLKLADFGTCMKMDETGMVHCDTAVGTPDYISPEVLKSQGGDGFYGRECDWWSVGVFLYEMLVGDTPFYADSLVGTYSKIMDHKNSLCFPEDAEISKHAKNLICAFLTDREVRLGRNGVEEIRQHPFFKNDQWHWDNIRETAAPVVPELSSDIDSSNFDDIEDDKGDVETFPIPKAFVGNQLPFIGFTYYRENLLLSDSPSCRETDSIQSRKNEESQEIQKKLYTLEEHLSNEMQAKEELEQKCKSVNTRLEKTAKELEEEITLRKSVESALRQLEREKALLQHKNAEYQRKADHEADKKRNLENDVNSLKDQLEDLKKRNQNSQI

SMILES	IC50
NC(=O)C1CCN(C2CCC(Oc3cc4cc[nH]c(=O)c4cc3Cl)CC2)CC1 (mixture of isomers) [Compound 15, 1-[4-(7-Chloro-1-oxo-1,2-dihydro-isoquinolin-6-yloxy)-cyclohexyl]-piperidine-4-carboxylic acid amide]	≤ 1 µM
O=c1[nH]ccc2cc(OC3CCC(N4CCCCC4)CC3)c(Cl)cc12 (mixture of isomers) [Compound 16, 7-Chloro-6-(4-piperidin-1-yl-cyclohexyloxy)-2H-isoquinolin-1-one]	≤ 1 µM
O=c1[nH]ccc2cc(OC3CCC(N4CCOCC4)CC3)c(Cl)cc12 (mixture of isomers) [Compound 18, 7-Chloro-6-(4-morpholin-4-yl-cyclohexyloxy)-2H-isoquinolin-1-one]	≤ 1 µM
NC1CC(Oc2cc3cc[nH]c(=O)c3cc2Cl)C1 (mixture of isomers) [Compound 54, 6-(3-Amino-cyclobutoxy)-7-chloro-2H-isoquinolin-1-one]	≤ 1 µM
O=c1[nH]ccc2cc(O[C@H]3CC[C@H](N4CCOCC4)CC3)c(Cl)cc12 [Compound 17, 7-Chloro-6-(4-morpholin-4-yl-cyclohexyloxy)-2H-isoquinolin-1-one]	≤ 1 µM
O=c1[nH]ccc2cc(O[C@H]3CC[C@H](N4CCCC4)CC3)c(Cl)cc12 [Compound 19, 7-Chloro-6-(4-pyrrolidin-1-yl-cyclohexyloxy)-2H-isoquinolin-1-one]	≤ 1 µM
CN1CCN([C@H]2CC[C@H](Oc3cc4cc[nH]c(=O)c4cc3Cl)CC2)CC1 [Compound 21, 7-Chloro-6-[4-(4-methyl-piperazin-1-yl)-cyclohexyloxy]-2H-isoquinolin-1-one]	≤ 1 µM
CN1CCN([C@H]2CC[C@@H](Oc3cc4cc[nH]c(=O)c4cc3Cl)CC2)CC1 [Compound 22, 7-Chloro-6-[4-(4-methyl-piperazin-1-yl)-cyclohexyloxy]-2H-isoquinolin-1-one]	≤ 1 µM
Cc1cc2c(=O)[nH]ccc2cc1O[C@H]1CC[C@H](NC(=O)CCC2CCNCC2)CC1 [Compound 28, N-[4-(7-Methyl-1-oxo-1,2-dihydro-isoquinolin-6-yloxy)-trans-cyclohexyl]-3-piperidin-4-yl-propionamide]	1 to 10 µM
Cc1cc2c(=O)[nH]ccc2cc1O[C@H]1CC[C@H](NC(=O)CC2CCNCC2)CC1 [Compound 29, N-[4-(7-Methyl-1-oxo-1,2-dihydro-isoquinolin-6-yloxy)-trans-cyclohexyl]-2-piperidin-4-yl-acetamide]	1 to 10 µM
O=C(CCC1CCNCC1)N[C@H]1CC[C@@H](Oc2cc3cc[nH]c(=O)c3cc2Cl)CC1 [Compound 30, N-[4-(7-Chloro-1-oxo-1,2-dihydro-isoquinolin-6-yloxy)-cis-cyclohexyl]-3-piperidin-4-yl-propionamide]	≤ 1 µM
O=C(CC1CCNCC1)N[C@H]1CC[C@@H](Oc2cc3cc[nH]c(=O)c3cc2Cl)CC1 [Compound 31, N-[4-(7-Chloro-1-oxo-1,2-dihydro-isoquinolin-6-yloxy)-cis-cyclohexyl]-2-piperidin-4-yl-acetamide]	≤ 1 µM
N[C@@H]1CC[C@H](Oc2ccc3c(=O)[nH]ccc3c2)C1 [Compound 45, 6-((1S,3R)-3-Amino-cyclopentyloxy)-2H-isoquinolin-1-one]	≤ 1 µM

Other lines, results leading:

IC50	SMILES
≤ 1 µM	Cc1cc2c(=O)[nH]ccc2cc1O[C@@H]1CCC[C@H](N)CC1 (relative stereo) [Compound 47, 6-(cis-4-Amino-cycloheptyloxy)-7-methyl-2H-isoquinolin-1-one]
≤ 1 µM	N[C@H]1CCC[C@@H](Oc2cc3cc[nH]c(=O)c3cc2Cl)CC1 (relative stereo) [Compound 48, 7-Chloro-6-(cis-4-Amino-cycloheptyloxy)-2H-isoquinolin-1-one]
≤ 1 µM	CCC[C@]1(N)CCC[C@@H](Oc2cc3cc[nH]c(=O)c3cc2Cl)CCC1 (single isomer, unassigned) [Compound 66, 6-(cis-5-Amino-5-propyl-cyclooctyloxy)-7-chloro-2H-isoquinolin-1-one]
≤ 1 µM	CCC[C@]1(N)CCC[C@H](Oc2cc3cc[nH]c(=O)c3cc2Cl)CCC1 (single isomer, unassigned) [Compound 67, 6-(trans-5-amino-5-propyl-cyclooctyloxy)-7-chloro-2H-isoquinolin-1-one]
≤ 1 µM	O=c1[nH]ccc2cc(O[C@H]3CC[C@@H](N4CCCC4)CC3)c(Cl)cc12 [Compound 20, 7-Chloro-6-(4-pyrrolidin-1-yl-cyclohexyloxy)-2H-isoquinolin-1-one]
≤ 1 µM	O=C(O)CN[C@H]1CC[C@@H](Oc2cc3cc[nH]c(=O)c3cc2Cl)CC1 [Compound 24, [4-(7-Chloro-1-oxo-1,2-dihydro-isoquinolin-6-yloxy)-cis-cyclohexylamino]-acetic acid]
≤ 1 µM	N[C@H]1CC[C@H](Oc2cc3cc[nH]c(=O)c3cc2Cl)C1 [Compound 44, 6-((1S,3S)-3-Amino-cyclopentyloxy)-7-chloro-2H-isoquinolin-1-one]
≤ 1 µM	N[C@H]1C[C@H](COc2cc3cc[nH]c(=O)c3cc2Cl)C1 [Compound 56, trans-6-(3-Amino-cyclobutylmethoxy)-7-chloro-2H-isoquinolin-1-one]

From patent US8742116B2, “Cycloalkylamine substituted isoquinolone derivatives” (Sanofi, priority 2006, dated 2014)
